Data taken from PMC11984407, “A natural small molecule isoginkgetin alleviates hypercholesterolemia and atherosclerosis by targeting ACLY” (Theranostics, 2025).

How the values were obtained:
hERG channel = target: T1, hERG channel (Homo sapiens, UniProt Q12809); experiment: Manual whole-cell patch clamp on HEK cells stably expressing hERG; format: cell-based
T1 construct: expressed in transfected cells
Protocol: The whole-cell patch clamp technique was employed for the experiments. Previously published works detail the methodologies and solutions used for capturing various currents in cardiomyocytes and in HEK cell lines that stably express different K^+ channels. Specifically, the standard bath solution with 5 mM K^+ consisted of 135 mM NaCl, 5 mM KCl, 2 mM CaCl2, 1 mM MgCl2, 10 mM glucose, and 10 mM HEPES, adjusted to pH 7.4 using NaOH. Meanwhile, the bath solution containing 135 mM K^+ was made of 135 mM KCl, 2 mM CaCl2, 1 mM MgCl2, 10 mM glucose, and 10 mM HEPES, with the pH set to 7.4 by adding KOH. All experiments using the patch clamp method were conducted at a controlled room temperature of 22 ± 1 °C.

HepG2 cells = experiment: DiI-LDL uptake assay; format: cell-based; details: HepG2, irrespective of dose or time
Protocol: HepG2 cells were cultured in 24-well plates and incubated in DMEM supplemented with 2% LPDS and 20 µg/mL DiI-LDL (20614ES76, YEASEN, Shanghai, China) for four h at 37 °C in the dark. Subsequently, the cells were rinsed twice with PBS containing 0.4% albumin and then washed three times with PBS. To quantify the fluorescence, 400 µL of isopropanol was added to each well, and the plates were incubated at room temperature for 20 min with continuous shaking. Subsequently, 200 µL aliquots were analyzed using a SpectraMax M2e Microplate Reader (Molecular Devices) at wavelengths of 520-570 nm, as previously described previously.

ACLY = target: T2, ACLY (Mesocricetus auratus, UniProt A0A1U7RF50); experiment: ACLY activity in vivo, hamster liver extracts (MDH-coupled method)
T2 construct: from tissue; host or cells: liver of hamsters and of Ldlr-/- hamsters dosed with ISOGK
T2 sequence (A0A1U7RF50 1-1101): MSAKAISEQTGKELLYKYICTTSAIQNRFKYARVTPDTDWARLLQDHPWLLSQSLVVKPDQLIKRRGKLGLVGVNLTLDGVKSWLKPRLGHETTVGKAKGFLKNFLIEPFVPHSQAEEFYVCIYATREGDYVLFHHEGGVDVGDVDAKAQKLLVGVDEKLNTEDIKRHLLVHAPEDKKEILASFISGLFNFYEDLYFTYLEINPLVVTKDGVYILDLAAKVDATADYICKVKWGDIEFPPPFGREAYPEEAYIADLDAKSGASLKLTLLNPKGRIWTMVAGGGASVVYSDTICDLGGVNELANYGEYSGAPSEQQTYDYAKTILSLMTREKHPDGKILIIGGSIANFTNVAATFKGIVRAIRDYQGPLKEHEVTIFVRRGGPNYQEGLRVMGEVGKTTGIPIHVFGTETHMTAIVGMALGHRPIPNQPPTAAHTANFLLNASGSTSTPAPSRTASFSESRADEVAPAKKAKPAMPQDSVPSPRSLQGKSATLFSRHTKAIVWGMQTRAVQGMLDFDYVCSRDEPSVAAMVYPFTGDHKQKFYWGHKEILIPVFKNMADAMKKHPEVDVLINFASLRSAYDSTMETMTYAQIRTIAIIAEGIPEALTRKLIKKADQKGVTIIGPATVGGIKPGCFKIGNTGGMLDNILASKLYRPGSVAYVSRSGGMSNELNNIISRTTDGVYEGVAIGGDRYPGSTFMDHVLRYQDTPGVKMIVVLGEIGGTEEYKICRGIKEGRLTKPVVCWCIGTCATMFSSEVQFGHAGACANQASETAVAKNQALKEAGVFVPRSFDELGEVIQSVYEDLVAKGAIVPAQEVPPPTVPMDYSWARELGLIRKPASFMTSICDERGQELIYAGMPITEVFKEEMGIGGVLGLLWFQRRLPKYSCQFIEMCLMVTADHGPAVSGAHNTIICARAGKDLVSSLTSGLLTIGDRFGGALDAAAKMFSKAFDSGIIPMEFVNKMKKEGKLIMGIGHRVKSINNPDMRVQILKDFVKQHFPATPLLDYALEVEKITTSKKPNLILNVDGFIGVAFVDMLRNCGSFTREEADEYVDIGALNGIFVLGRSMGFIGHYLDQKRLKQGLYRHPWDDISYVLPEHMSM
Protocol: The activity of the ACLY enzyme was assayed utilizing malate dehydrogenase (MDH)-coupled method kits (BC4240, Solarbio, Beijing, China). In summary, liver extracts were incubated in a reaction buffer comprising 20 mM citrate, 10 mM MgCl₂, 10 mM DTT, 0.5 U/ml of malic dehydrogenase, 0.33 mM CoASH, and 0.14 mM NADH, both in the presence and absence of 5 mM ATP. The quantity of oxaloacetate produced by ACLY catalysis was determined by measuring the alteration in absorbance at 340 nm, which corresponds to the depletion of NADH during the MDH-catalyzed reaction. After accounting for background variations in absorbance in the absence of ATP, the relative ACL activities were computed by normalizing the data to the weight of the liver tissue.

liver gene expression = experiment: RNA sequencing of Apoe-/- mouse liver; format: in vivo; details: heat map
Text: Total RNA was extracted, and cDNA libraries were generated to investigate differences in gene expression. The Illumina sequencing platform was employed for single-end sequencing of the libraries. HISAT2 software (version 2.0.5) was utilized to align the reads to the mouse reference genome in Ensembl. StringTie (version 1.3.3b) was employed to compute raw counts of genes. DESeq2 (version 1.20.0) software was used to normalize the count matrix. Gene sets were established based on each KEGG pathway term and the associated genes, with GSEA conducted using the Java GSEA platform (version 3.0). This analysis utilized the 'Signal2Noise' metric for ranking and adopted a permutation type specific to 'gene sets'. Gene sets displaying FDR values below 0.25 were deemed to hold statistical significance. The expression patterns of pivotal genes within the pathways enriched by GSEA were visually represented through heatmaps, generated by employing the "pheatmap" package within the R programming environment. The relevant data can be accessed via the Gene Expression Omnibus database, using the following accession number: GSE261858.

T1 sequence (Q12809 whole entry): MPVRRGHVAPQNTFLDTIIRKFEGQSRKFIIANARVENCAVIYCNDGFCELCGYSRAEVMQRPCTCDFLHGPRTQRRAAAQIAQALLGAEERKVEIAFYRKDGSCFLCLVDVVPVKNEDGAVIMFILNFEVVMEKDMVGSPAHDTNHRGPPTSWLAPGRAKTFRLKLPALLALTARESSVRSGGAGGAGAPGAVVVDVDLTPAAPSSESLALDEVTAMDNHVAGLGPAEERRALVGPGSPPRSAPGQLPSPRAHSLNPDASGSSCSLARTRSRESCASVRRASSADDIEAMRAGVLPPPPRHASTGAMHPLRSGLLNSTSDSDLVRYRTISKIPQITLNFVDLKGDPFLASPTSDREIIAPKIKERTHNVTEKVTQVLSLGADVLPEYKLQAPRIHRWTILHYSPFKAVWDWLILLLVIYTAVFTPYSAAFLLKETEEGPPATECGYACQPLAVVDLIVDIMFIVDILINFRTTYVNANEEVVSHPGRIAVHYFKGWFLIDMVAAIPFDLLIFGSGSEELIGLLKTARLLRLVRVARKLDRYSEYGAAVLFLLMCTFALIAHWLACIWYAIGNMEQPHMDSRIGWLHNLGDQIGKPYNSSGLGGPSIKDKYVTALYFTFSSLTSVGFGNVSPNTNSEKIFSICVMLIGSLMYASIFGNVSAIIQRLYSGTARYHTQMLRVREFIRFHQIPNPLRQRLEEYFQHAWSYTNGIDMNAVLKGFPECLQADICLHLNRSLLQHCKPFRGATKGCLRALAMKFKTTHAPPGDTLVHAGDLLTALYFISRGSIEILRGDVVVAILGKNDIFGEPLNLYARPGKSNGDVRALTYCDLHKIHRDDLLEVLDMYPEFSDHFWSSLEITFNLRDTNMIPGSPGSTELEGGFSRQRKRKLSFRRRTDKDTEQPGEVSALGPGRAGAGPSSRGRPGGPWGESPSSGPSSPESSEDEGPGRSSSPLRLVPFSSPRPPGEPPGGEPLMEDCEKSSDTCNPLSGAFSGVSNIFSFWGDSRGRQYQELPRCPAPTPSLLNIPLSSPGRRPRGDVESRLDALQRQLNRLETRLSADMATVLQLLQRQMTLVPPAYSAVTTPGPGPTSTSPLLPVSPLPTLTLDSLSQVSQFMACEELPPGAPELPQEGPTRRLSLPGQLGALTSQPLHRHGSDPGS

In the case of `COc1ccc(-c2cc(=O)c3c(O)cc(O)c(-c4cc(-c5cc(=O)c6c(O)cc(O)cc6o5)ccc4OC)c3o2)cc1` [ISOGK, Isoginkgetin], the IC50 (hERG channel) is reported as > 30 µM, the DiI-LDL uptake (HepG2 cells) is reported as “no significant effect on LDL uptake” and the “ACLY enzyme activity in liver tissue” value (ACLY; Ldlr-/- hamsters) is reported as “significantly inhibits ACLY activity”. The “ACLY enzyme activity in liver tissue” value (ACLY; high cholesterol diet hamsters, 4 weeks) was “significantly inhibits ACLY activity” and the “expression of fatty acid and cholesterol biosynthesis genes Srebf1, Fasn, Acaca, Cyp51” value (liver gene expression) was “significantly downregulated”.
